These results are taken from patent US20250179055A1, “Substituted 2-(pyrrolidine-3-yl)acetic acid derivative, preparation method and use thereof” (INNOVSTONE THERAPEUTICS LIMITED, priority 2023, published 2025).

In series [1] the target is Lp(a) assembly in HepG2 cells overexpressing ApoA protein (Homo sapiens (Human), UniProt P08519). In words: ELISA assay on screening Lp(a) assembly inhibition. In kind it is cell-based. Conditions: HepG2 cells overexpressing ApoA protein, 24 h, ELISA of supernatant. A digest of the protocol:
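HepG2 cells overexpressing ApoA treated with diluted compounds for 24 h at 37 °C, 5% CO2; EACA (10 μL of 1.5 M) added before harvesting supernatant. Secreted Lp(a) quantified by sandwich ELISA; IC50 from four-parameter Hill fit of % inhibition versus concentration.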

A further series deals with serum Lp(a). In words: Humanized mouse Lp(a) inhibition test. Conditions: blood 8 h after last dose, humanized Lp(a) mice. It counts as in vivo, humanized Lp(a) transgenic mouse. The procedure: The in vivo pharmacodynamics of the compounds in reducing Lp(a) was evaluated in a humanized Lp(a) transgenic mouse model. Lp(a) mice were obtained by crossing mice expressing humanized apoB-100 with mice expressing humanized apo(a) containing 16 Kringle repeats. Female mice aged 8-9 weeks were selected for the test. Housing conditions: standard light cycle (12 h light/12 h dark), temperature 20-25° C., humidity 40-70%, free access to water and normal diet. is One day before the test, mice were divided into vehicle control group and test article group (n=5/group) according to body weight and baseline plasma Lp(a) concentration. Mice were orally administered with vehicle (normal saline, 10 mL/kg) or test compound (prepared with normal saline to 3 or 0.5 mg/mL, each mouse received 10 mL/kg), once daily (9:00 am) for 3 consecutive days, and blood was collected to determine the change of serum Lp(a). Eight hours after the last dose, 10 μL of blood was collected from the tail vein and transferred to a 1.5 mL centrifuge tube containing 90 μL of normal saline, mixed well, and left to stand on ice for 30 min. The above samples were centrifuged at 4° C., 3000 rpm for 10 min, and the supernatant was collected and placed on ice. The Lp(a) concentration in the supernatant was measured by double-antibody sandwich ELISA using an anti-apo(a) capture antibody and an HRP-conjugated anti-ApoB detection antibody, with TMB for color development. The reaction was stopped with 1 N sulfuric acid, and the OD value was read at 450 nm on a Tecan microplate reader. Inhibition rate was calculated for each dosing group. Inhibition rate (%)=(vehicle control group Lp(a) concentration or self pre-dose Lp(a) concentration post-dose Lp(a) concentration)/vehicle control group Lp(a) concentration or self pre-dose Lp(a) concentration*100.

Series [2] is described as follows: Pharmacokinetic test in C57BL/6J female mice. It counts as in vivo. Conditions: mouse, plasma. As to the method:
C57BL/6J female mice were used as test animals, and the drug concentration in plasma of C57BL/6J female mice at different time points after intravenous and gavage administration was determined to study the pharmacokinetic characteristics of the compound in C57BL/6J female mice.
Drug formulation: a certain amount of compound was weighed and normal saline was added to prepare clear, colorless solutions of 0.4 mg/mL (IV) and 1 mg/mL (PO).
Test procedure: C57BL/6J female mice were fasted overnight before gavage administration, followed by non-fasted intravenous administration. The intravenous dose was 2 mg/kg, and the gavage dose was 10 mg/kg. Approximately 0.03 mL of blood was collected from the orbital venous plexus at 0.083 (IV), 0.25, 0.5, 1, 2, 4, 8 and 24 h after administration, respectively, placed in a centrifuge tube containing EDTA-K2, centrifuged at 3000 rpm/min at 2-8° C. for 10 min to obtain plasma, and stored at −80° C.
Determination of the content of the compound to be tested in plasma of C57BL/6J female mice at different blood collection time points: 10 μL of plasma of C57BL/6J female mice collected at each time point after administration of LY3473329 and the compound of this application was added with 200 μL of 500 mM trichloroacetic acid aqueous solution to precipitate protein, which contained 100 ng/mL internal standard, vortexed for 1 min, centrifuged at 14000 rpm for 7 min for samples treated with test tubes, and centrifuged at 4000 rpm for 10 min for samples treated with 96-well plates, and 190 μL of the supernatant was transferred to a 96-well plate, and 8 μL of the supernatant was injected for LC-MS/MS analysis. WO2023078333A1 Example 6:12 μL of plasma of C57BL/6J female mice collected at each time point after administration was added with 240 μL of methanol to precipitate protein, which contained 10 ng/mL internal standard, vortexed for 1 min, centrifuged at 14000 rpm for 7 min for samples treated with test tubes, and centrifuged at 4000 rpm for 10 min for samples treated with 96-well plates. 220 μL of the supernatant was transferred to a 96-well plate, and 10 μL of the supernatant was taken for LC-MS/MS analysis.
After plasma concentrations were determined by LC/MS/MS analysis method, pharmacokinetic parameters (e.g. Cmax, AUC, T1/2, etc.) were calculated using WinNonlin software and noncompartmental analysis.

[3] abbreviates: 30 mg/kg oral once daily for 3 days.
[4] abbreviates: intravenous administration, 2 mg/kg.
Setting [5] is: po, gavage administration, 10 mg/kg.
[6] abbreviates: 5 mg/kg oral once daily for 3 days.

Chain of Lp(a) assembly in HepG2 cells overexpressing ApoA protein (P08519 20-2040): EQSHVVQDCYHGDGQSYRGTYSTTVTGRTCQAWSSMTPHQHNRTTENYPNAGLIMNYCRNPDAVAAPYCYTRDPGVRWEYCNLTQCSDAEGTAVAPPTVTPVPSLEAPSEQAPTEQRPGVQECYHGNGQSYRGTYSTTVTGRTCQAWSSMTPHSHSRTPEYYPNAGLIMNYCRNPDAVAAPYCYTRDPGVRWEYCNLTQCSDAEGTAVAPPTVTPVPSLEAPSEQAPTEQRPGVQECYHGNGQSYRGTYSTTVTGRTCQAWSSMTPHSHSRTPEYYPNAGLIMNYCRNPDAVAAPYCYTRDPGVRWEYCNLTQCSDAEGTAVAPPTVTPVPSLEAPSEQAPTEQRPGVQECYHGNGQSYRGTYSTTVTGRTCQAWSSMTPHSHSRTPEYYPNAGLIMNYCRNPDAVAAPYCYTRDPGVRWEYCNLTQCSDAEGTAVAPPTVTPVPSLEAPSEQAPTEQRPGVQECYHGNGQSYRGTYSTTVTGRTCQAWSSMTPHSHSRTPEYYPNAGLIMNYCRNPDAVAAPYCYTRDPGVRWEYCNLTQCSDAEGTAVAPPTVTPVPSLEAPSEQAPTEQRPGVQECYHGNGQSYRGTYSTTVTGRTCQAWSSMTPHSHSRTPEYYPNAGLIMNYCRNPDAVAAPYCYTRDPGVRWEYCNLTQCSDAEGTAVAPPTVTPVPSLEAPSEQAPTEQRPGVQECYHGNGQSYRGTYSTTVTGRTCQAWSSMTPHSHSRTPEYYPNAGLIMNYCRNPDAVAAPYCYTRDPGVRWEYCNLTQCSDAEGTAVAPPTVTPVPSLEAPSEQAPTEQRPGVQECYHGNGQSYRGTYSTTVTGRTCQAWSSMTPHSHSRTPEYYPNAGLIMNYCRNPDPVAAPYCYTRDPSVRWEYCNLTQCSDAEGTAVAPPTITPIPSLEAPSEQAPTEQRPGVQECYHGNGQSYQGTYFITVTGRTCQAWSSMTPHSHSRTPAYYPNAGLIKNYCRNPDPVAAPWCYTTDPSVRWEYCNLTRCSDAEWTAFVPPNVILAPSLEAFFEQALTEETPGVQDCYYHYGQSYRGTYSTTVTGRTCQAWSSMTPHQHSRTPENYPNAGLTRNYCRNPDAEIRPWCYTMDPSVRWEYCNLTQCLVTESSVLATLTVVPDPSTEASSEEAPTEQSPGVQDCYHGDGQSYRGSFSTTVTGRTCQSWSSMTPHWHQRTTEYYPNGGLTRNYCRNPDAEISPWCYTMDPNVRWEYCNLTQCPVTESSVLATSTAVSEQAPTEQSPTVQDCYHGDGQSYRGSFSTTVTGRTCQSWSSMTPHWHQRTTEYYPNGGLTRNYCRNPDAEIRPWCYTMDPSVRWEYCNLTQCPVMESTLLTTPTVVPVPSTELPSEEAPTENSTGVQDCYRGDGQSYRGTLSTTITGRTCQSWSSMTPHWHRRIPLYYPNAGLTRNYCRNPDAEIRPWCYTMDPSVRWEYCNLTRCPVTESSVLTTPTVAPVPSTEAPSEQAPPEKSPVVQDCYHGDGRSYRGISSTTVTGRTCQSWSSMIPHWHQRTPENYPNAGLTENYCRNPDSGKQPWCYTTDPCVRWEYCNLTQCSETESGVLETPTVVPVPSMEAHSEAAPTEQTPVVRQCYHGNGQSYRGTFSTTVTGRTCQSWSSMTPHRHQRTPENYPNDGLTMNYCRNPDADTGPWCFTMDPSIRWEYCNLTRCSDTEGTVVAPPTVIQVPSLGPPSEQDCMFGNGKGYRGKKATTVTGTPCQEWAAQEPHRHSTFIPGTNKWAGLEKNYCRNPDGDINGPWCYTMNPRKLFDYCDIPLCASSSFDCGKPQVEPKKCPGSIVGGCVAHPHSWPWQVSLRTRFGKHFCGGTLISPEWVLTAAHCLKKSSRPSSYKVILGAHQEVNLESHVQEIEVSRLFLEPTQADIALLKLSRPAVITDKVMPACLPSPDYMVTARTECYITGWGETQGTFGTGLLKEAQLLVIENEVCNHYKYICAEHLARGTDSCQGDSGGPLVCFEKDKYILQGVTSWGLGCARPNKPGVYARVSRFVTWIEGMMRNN

In general, IC50 refers to the concentration that inhibits the measured activity by half. As for `O=C(O)[C@@H](Cc1cccc(CN(Cc2cccc(C[C@H](C(=O)O)[C@H]3CCNC3)c2)C(=O)COc2cccc(C[C@H](C(=O)O)[C@H]3CCNC3)c2)c1)[C@H]1CCNC1` [Compound 95, (2S,2′S)-3,3′-((((2-(3-((S)-2-carboxy-2-((R)-pyrrolidin-3-yl)ethyl)phenoxy)acetyl)azanediyl)bis(methylene))bis(3,1-phenylene))bis(2-((R)-pyrrolidin-3-yl)propanoic acid)], it took 0.68 nM to reach half-maximal inhibition in series [1] (IC50). For the same compound, in the series with serum Lp(a) (setting [3]), the “Lp(a) Inhibition Rate” value was found to be 95%.

A word on the AUC: it is the area under the concentration-time curve, a measure of exposure. A lower AUC goes with low exposure. In general, half-life refers to how long it takes for the measured level to halve. By bioavailability is commonly meant dose-corrected exposure relative to a reference, in per cent. A lower bioavailability goes with little systemic uptake. As a reminder, the Cmax is the peak of the concentration-time curve. On to `O=C(O)[C@@H](Cc1cccc(CC(=O)N(CCOc2cccc(C[C@H](C(=O)O)[C@H]3CCNC3)c2)Cc2cccc(C[C@H](C(=O)O)[C@H]3CCNC3)c2)c1)[C@H]1CCNC1` [Compound 96, (S)-3-(3-(2-((3-((S)-2-carboxy-2-((R)-pyrrolidin-3-yl)ethyl)benzyl)(2-(3-((S)-2-carboxy-2-((R)-pyrrolidin-3-yl)ethyl)phenoxy)ethyl)amino)-2-oxoethyl)phenyl)-2-((R)-pyrrolidin-3-yl)propanoic acid], for which the half-maximal inhibitory concentration (IC50) in series [1] was 0.58 nM. In series [2] (setting [4]), this compound gave an area under the curve (AUC) of 22900 ng·h/mL and a half-life of 23.3 h. This compound also returned a bioavailability in series [2] (po, gavage 10 mg/kg vs intravenous 2 mg/kg) of 13.9%. For the same compound, in series [2] (setting [5]), the AUC came to 12400 ng·h/mL, the concentration peaked (Cmax) at 919 ng/mL and the half-life was 11.4 h. In the series with serum Lp(a) (setting [6]), the “Lp(a) Inhibition Rate” value is reported as 91%. The “Lp(a) Inhibition Rate” value in the series with serum Lp(a) (setting [3]) is reported as 96%.

In series [1], `O=C(O)[C@@H](Cc1cccc(CCN(CCOc2cccc(C[C@H](C(=O)O)[C@H]3CCNC3)c2)C(=O)Cc2cccc(C[C@H](C(=O)O)[C@H]3CCNC3)c2)c1)[C@H]1CCNC1` [Compound 100, (S)-3-(3-(2-((3-((S)-2-carboxy-2-((R)-pyrrolidin-3-yl)ethyl)phenethyl)(2-(3-((S)-2-carboxy-2-((R)-pyrrolidin-3-yl)ethyl)phenoxy)ethyl)amino)-2-oxoethyl)phenyl)-2-((R)-pyrrolidin-3-yl)propanoic acid] came in with an IC50 of 1.12 nM. Moreover, the “Lp(a) Inhibition Rate” value with serum Lp(a) (setting [6]) is 86%.

Consider `O=C(O)[C@@H](Cc1cccc(CC(=O)N(CCOc2cccc(C[C@H](C(=O)O)[C@H]3CCNC3)c2)CCOc2cccc(C[C@H](C(=O)O)[C@H]3CCNC3)c2)c1)[C@H]1CCNC1` [Compound 111, (2S,2′S)-3,3′-(((((2-(3-((S)-2-carboxy-2-((R)-pyrrolidin-3-yl)ethyl)phenyl)acetyl)azanediyl)bis(ethane-2,1-diyl))bis(oxy))bis(3,1-phenylene))bis(2-((R)-pyrrolidin-3-yl)propanoic acid)], for which, in series [1], inhibition was half-maximal at 1.02 nM (IC50). Also, the “Lp(a) Inhibition Rate” value in the series with serum Lp(a) (setting [6]) is 92%.

Take `O=C(O)[C@@H](Cc1cccc(OCCN(CCOc2cccc(C[C@H](C(=O)O)[C@H]3CCNC3)c2)C(=O)COc2cccc(C[C@H](C(=O)O)[C@H]3CCNC3)c2)c1)[C@H]1CCNC1` [Compound 113, (2S,2′S)-3,3′-(((((2-(3-((S)-2-carboxy-2-((R)-pyrrolidin-3-yl)ethyl)phenoxy)acetyl)azanediyl)bis(ethane-2,1-diyl))bis(oxy))bis(3,1-phenylene))bis(2-((R)-pyrrolidin-3-yl)propanoic acid)]: it took 1.17 nM to reach half-maximal inhibition in series [1] (IC50). In addition, the “Lp(a) Inhibition Rate” value in the series with serum Lp(a) (setting [6]) is listed as 79%.

`O=C(O)[C@@H](Cc1cccc(CN(CCOc2cccc(C[C@H](C(=O)O)[C@H]3CCNC3)c2)C(=O)Sc2cccc(C[C@H](C(=O)O)[C@H]3CCNC3)c2)c1)[C@H]1CCNC1` [Compound 138, (S)-3-(3-(2-((3-((S)-2-carboxy-2-((R)-pyrrolidin-3-yl)ethyl)benzyl)(((3-((S)-2-carboxy-2-((R)-pyrrolidin-3-yl)ethyl)phenyl)thio)carbonyl)amino)ethoxy)phenyl)-2-((R)-pyrrolidin-3-yl)propanoic acid] yielded an IC50 in series [1] of 2 nM. Also, the “Lp(a) Inhibition Rate” value with serum Lp(a) (setting [6]) was found to be 88%.

`O=C(O)[C@@H](Cc1cc(F)cc(CC(=O)N(CCOc2cc(F)cc(C[C@H](C(=O)O)[C@H]3CCNC3)c2)Cc2cc(F)cc(C[C@H](C(=O)O)[C@H]3CCNC3)c2)c1)[C@H]1CCNC1` [Compound 152, (S)-3-(3-(2-((3-((S)-2-carboxy-2-((R)-pyrrolidin-3-yl)ethyl)-5-fluorobenzyl)(2-(3-((S)-2-carboxy-2-((R)-pyrrolidin-3-yl)ethyl)-5-fluorophenoxy)ethyl)amino)-2-oxoethyl)-5-fluorophenyl)-2-((R)-pyrrolidin-3-yl)propanoic acid] came in with an IC50 in series [1] of 1.26 nM. The “Lp(a) Inhibition Rate” value in the series on serum Lp(a) (setting [6]) is 90%.

Turning to `O=C(O)[C@@H](Cc1cccc(CCN(CCOCc2cccc(C[C@H](C(=O)O)[C@H]3CCNC3)c2)C(=O)Cc2cccc(C[C@H](C(=O)O)[C@H]3CCNC3)c2)c1)[C@H]1CCNC1` [Compound 161, (S)-3-(3-(2-((2-((3-((S)-2-carboxy-2-((R)-pyrrolidin-3-yl)ethyl)benzyl)oxy)ethyl)(3-((S)-2-carboxy-2-((R)-pyrrolidin-3-yl)ethyl)phenethyl)amino)-2-oxoethyl)phenyl)-2-((R)-pyrrolidin-3-yl)propanoic acid], it took 1.89 nM to reach half-maximal inhibition in series [1] (IC50). For the same compound, in the series on serum Lp(a) (setting [6]), the “Lp(a) Inhibition Rate” value is reported as 83%.

As to `COc1cc(CC(=O)N(CCOc2cc(C[C@H](C(=O)O)[C@H]3CCNC3)cc(OC)c2)Cc2cc(C[C@H](C(=O)O)[C@H]3CCNC3)cc(OC)c2)cc(C[C@H](C(=O)O)[C@H]2CCNC2)c1` [Compound 176, (S)-3-(3-(2-((3-((S)-2-carboxy-2-((R)-pyrrolidin-3-yl)ethyl)-5-methoxybenzyl)(2-(3-((S)-2-carboxy-2-((R)-pyrrolidin-3-yl)ethyl)-5-methoxyphenoxy)ethyl)amino)-2-oxoethyl)-5-methoxyphenyl)-2-((R)-pyrrolidin-3-yl)propanoic acid], the IC50 in series [1] was determined as 1.81 nM. Moreover, the “Lp(a) Inhibition Rate” value in the series on serum Lp(a) (setting [6]) is given as 78%.

In series [1], `O=C(O)[C@@H](Cc1cccc(CC(=O)N(CCOc2cccc(C[C@H](C(=O)O)[C@H]3CCNC3)c2)Cc2cc(C[C@H](C(=O)O)[C@H]3CCNC3)cs2)c1)[C@H]1CCNC1` [Compound 177, (S)-3-(3-(2-((2-(3-((S)-2-carboxy-2-((R)-pyrrolidin-3-yl)ethyl)phenoxy)ethyl)((4-((S)-2-carboxy-2-((R)-pyrrolidin-3-yl)ethyl)thiophen-2-yl)methyl)amino)-2-oxoethyl)phenyl)-2-((R)-pyrrolidin-3-yl)propanoic acid] came in with a half-maximal inhibitory concentration (IC50) of 1.26 nM. In addition, in the series on serum Lp(a) (setting [6]), the “Lp(a) Inhibition Rate” value is listed as 90%.
